Measurements: US8912200B2, “Alkynyl substituted pyrimidinyl-pyrroles active as kinases inhibitors” (Nerviano Medical Sciences S.R.L., priority 2011, dated 2014)

Tests used:
[1] = biological target: T1, JAK2 kinase domain (Homo sapiens, UniProt O60674); assay: Biochemical assay for inhibitors of JAK kinase activity (JAK2, 33P-γ-ATP/dowex resin); settings: JAK2 kinase domain 1 nM, 60 μM ATP
T1 construct: commercially available JAK2 kinase domain; purchased Invitrogen, Eugene, Oreg
Description: Biochemical Assay for Inhibitors of JAK Kinase Activity
(§1) Specific JAK2, JAK1 or JAK3 peptide substrates are trans-phosphorylated by JAK kinases in the presence of ATP traced with 33P-γ-ATP. At the end of the phosphorylation reaction, the unreacted ATP, cold and radioactive, is captured by an excess of dowex ion exchange resin that eventually settles by gravity to the bottom of the reaction plate. The supernatant is subsequently withdrawn and transferred into a counting plate that is then evaluated by β-counting.
500 g of wet resin (SIGMA, custom prepared resin DOWEX 1×8 200-400 mesh, 2.5 Kg) are weighed out and diluted 2 to 1 in 150 mM sodium formate, pH 3.00. The resin is allowed to settle down overnight and then the supernatant is discarded. After three washes as above over a couple of days, the resin is allowed to settle and two volumes (with respect to the resin volume) of 150 mM sodium formate buffer are added.
Kinase buffer was composed of 50 mM HEPES pH 7.5 containing 10 mM MgCl2, 2.5 mM DTT, 10 μM Na3VO4 and 0.2 mg/mL BSA.
JAK2 Specific Assay Conditions
The JAK2 kinase assay was run with a final enzyme concentration of 1 nM, in the presence of 60 μM ATP, 3 nM 33P-γ-ATP and 64 μM of substrate BioDBn*306 (Aminoacid sequence: LPLDKDYYVVREPGQ—SEQ ID NO: 1). The peptidic substrate was purchased from American Peptide Company (Sunnyvale, Calif.).
(§2) For IC50 determination, test compounds are received as a 1 mM solution in 100% DMSO, distributed into 96 well plates: compounds are then plated into the first column of a microtiter plate (A1 to G1), 100 μL/well.
(§3) An automated station for serial dilutions (Biomek FX, Beckman) is used for producing 1:3 dilutions in 100% DMSO, from line A1 to A10, and for all the compounds in the column. Moreover, 4-5 copies of daughter plates are prepared by reformatting 5 μL of this first set of 100% DMSO dilution plates into 384 deep well-plates: one of these plates with the serial dilutions of test compounds will be thawed the day of the experiments, reconstituted at a 3× concentration with water and used in the IC50 determination assays. In a standard experiment, the highest concentration (3×) of all compounds is 30 μM, while the lowest one is 1.5 nM. Each 384 well-plate will contain at least one curve of the standard inhibitor staurosporine and reference wells (total enzyme activity vs. no enzymatic activity) for the Z′ and signal to background evaluation.
384-well plates, V bottom (test plates) are prepared with 5 μL of the compound dilution (3×) and then placed onto a PlateTrak 12 robotized station (Perkin Elmer; the robot has one 384-tip pipetting head for starting the assay plus one 96-tip head for dispensing the resin) together with one reservoir for the Enzyme mix (3×) and one for the ATP mix (3×). At the start of the run, the robot aspirates 5 μL of ATP mix, makes an air gap inside the tips (3 μl) and aspirates 5 μL of JAK2 mix. The following dispensation into the plates plus 3 cycles of mixing, done by the robot itself, starts the kinase reaction. At this point, the correct concentrations are restored for all the reagents. The robot incubates the plates for 60 minutes at room temperature, and then stops the reaction by pipetting 60 μL of dowex resin suspension into the reaction mix. In order to avoid tip clogging, wide bore tips are used to dispense the resin suspension. Three cycles of mixing are done immediately after the addition of the resin. Another mixing cycle is performed after all the plates are stopped, this time using normal tips: the plates are then allowed to rest for about one hour in order to allow resin sedimentation. At this point, 27 μL of the supernatant are transferred into 384-Optiplates (Perkin-Elmer), with 50 μL of Microscint 40 (Perkin-Elmer); after 5 min of orbital shaking the plates are read on a Perkin-Elmer Top Count radioactivity counter. […]

[2] = biological target: T2, Lyn full length (Homo sapiens, UniProt P07948); assay: Biochemical assay for inhibitors of Lyn (Src family) kinase activity; settings: Lyn full length 1 nM, 25 μM ATP
T2 construct: The assay has been performed using Lyn full length
Description: Biochemical Assay for Inhibitors of Lck and Lyn (Src Family) Kinases Activity
as §1, with “Lck and Lyn” for “JAK2, JAK1 or JAK3 peptide”, “Lck and Lyn” for “JAK”
Lyn Specific Assay Conditions
The assay has been performed using Lyn full length (accession number P07948 of UniProtKB/Swiss-Prot database).
Kinase buffer was composed of 50 mM HEPES pH 7.5 containing 3 mM MgCl2, 1 mM DTT, 3 μM Na3VO4, and 0.2 mg/mL BSA.
The Lyn kinase assay was run with a final enzyme concentration of 1 nM, in the presence of 25 μM ATP, 1.5 nM 33P-γ-ATP and 250 μM of substrate ABI 1 (Aminoacid sequence: EAIYAAPFAKKK—SEQ ID NO: 3). The peptidic substrate was purchased from American Peptide Company (Sunnyvale, Calif.).
as §2, §3
384-well plates, V bottom (test plates) are prepared with 5 μL of the compound dilution (3×) and then placed onto a PlateTrak 12 robotized station (Perkin Elmer; the robot has one 384-tip pipetting head for starting the assay plus one 96-tip head for dispensing the resin) together with one reservoir for the Enzyme mix (3×) and one for the ATP mix (3×). At the start of the run, the robot aspirates 5 μL of ATP mix, makes an air gap inside the tips (3 μl) and aspirates 5 μL of JAK2 mix. The following dispensation into the plates plus 3 cycles of mixing, done by the robot itself, starts the kinase reaction. At this point, the correct concentrations are restored for all the reagents. The robot incubates the plates for 60 minutes at room temperature, and then stops the reaction by pipetting 60 μL of dowex resin suspension into the reaction mix. In order to avoid tip clogging, wide bore tips are used to dispense the resin suspension. Three cycles of mixing are done immediately after the addition of the resin. Another mixing cycle is performed after all the plates are stopped, this time using normal tips: the plates are then allowed to rest for about one hour in order to allow resin sedimentation. At this point, 27 μL of the supernatant are transferred into 384-Optiplates (Perkin-Elmer), with 50 μL of Microscint 40 (Perkin-Elmer); after 5 min of orbital shaking the plates are read on a Perkin-Elmer Top Count radioactivity counter.
Data are analyzed by an internally customized version of the SW package “Assay Explorer” that provides sigmoidal fitting of the ten-dilutions curves for IC50 determination in the secondary assays/hit confirmation routines.

[3] = system: JAK2 dependent human megakaryoblastic leukemia cell line SET-2; assay: Cell proliferation assay (CellTiter-Glo, 72 hours); format: cell-based; settings: Homo sapiens, SET-2 cells
Protocol: The JAK2 dependent human megakaryoblastic leukemia cell line SET-2 (DSMZ, Braunschweig GERMANY) and the JAK2 independent human chronic myelogenous leukaemia cell line K562 (ECACC, Wiltshire, UK) were cultured in RPMI-1640 medium-Glutamax (Gibco BRL, Gaithesburg, Md., USA), supplemented with 10% fetal bovine serum (FBS) at 37° C. and 5% CO2.
Cell Proliferation Assay:
Approximately 5×10^3 cells were plated into 384 microtiter plate wells in 50 μL of growth media with different concentrations of inhibitors. The cells were incubated at 37° C. and 5% CO2 for 72 hours, then the plates were processed using CellTiter-Glo assay (Promega, Madison, Wis., USA) following the manufacturer's instruction. Briefly 25 μL/well reagent solution is added to each well and after 5 minutes shaking the micro-plates are read by Envision luminometer (PerkinElmer, Waltham, Mass., USA).
Data are analyzed by Symix Assay Explorer software (Symix Technologies Inc.) that provides sigmoidal fitting algorithm of the 8 points dilutions curves for IC50 determination.

T1 sequence (O60674 849-1124 limits assumed): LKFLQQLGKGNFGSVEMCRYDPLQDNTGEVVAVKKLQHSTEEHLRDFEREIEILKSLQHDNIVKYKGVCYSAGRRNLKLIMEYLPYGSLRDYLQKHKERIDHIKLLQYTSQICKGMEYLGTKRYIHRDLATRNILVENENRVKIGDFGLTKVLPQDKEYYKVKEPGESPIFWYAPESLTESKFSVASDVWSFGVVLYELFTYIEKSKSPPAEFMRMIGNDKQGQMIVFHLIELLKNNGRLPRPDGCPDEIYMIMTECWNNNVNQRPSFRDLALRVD
T2 sequence (P07948 whole entry): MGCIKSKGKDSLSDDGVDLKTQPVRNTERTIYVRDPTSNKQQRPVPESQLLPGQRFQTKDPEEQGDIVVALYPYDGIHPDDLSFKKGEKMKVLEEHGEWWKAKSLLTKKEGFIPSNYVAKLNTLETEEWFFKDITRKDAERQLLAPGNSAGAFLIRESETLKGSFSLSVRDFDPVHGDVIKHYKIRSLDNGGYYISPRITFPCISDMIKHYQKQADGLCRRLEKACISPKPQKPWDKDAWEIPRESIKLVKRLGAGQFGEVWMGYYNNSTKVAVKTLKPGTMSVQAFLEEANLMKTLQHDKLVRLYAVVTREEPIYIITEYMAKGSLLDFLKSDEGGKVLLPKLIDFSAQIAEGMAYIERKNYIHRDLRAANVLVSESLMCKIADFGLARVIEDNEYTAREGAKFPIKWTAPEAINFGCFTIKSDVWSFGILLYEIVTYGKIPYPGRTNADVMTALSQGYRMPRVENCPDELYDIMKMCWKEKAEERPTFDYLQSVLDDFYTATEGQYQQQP

Row | SMILES | IC50 [1] [nM] | IC50 [2] [nM] | IC50 [3] [nM]
1 | COc1ccc(N2CCN(C)CC2)cc1C#Cc1cnc(N)nc1-c1cc(C(N)=O)c(-c2cc(Cl)ccc2C)[nH]1 [compound 34, 5-(2-Amino-5-{[2-methoxy-5-(4-methylpiperazin-1-yl)phenyl]ethynyl}pyrimidin-4-yl)-2-(5-chloro-2-methylphenyl)-1H-pyrrole-3-carboxamide] | 5 | 20 | 670
2 | Cc1ccc(Cl)cc1-c1[nH]c(-c2nc(N)ncc2C#Cc2ccc(N3CCN(C)CC3)cc2F)cc1C(N)=O [compound 42, 5-(2-Amino-5-{[2-fluoro-4-(4-methylpiperazin-1-yl)phenyl]ethynyl}pyrimidin-4-yl)-2-(5-chloro-2-methylphenyl)-1H-pyrrole-3-carboxamide] | 11 | 9 | 240
3 | COc1cc(N2CCN(C)CC2)ccc1C#Cc1cnc(N)nc1-c1cc(C(N)=O)c(-c2cc(Cl)ccc2C)[nH]1 [compound 46, 5-(2-Amino-5-{[2-methoxy-4-(4-methylpiperazin-1-yl)phenyl]ethynyl}pyrimidin-4-yl)-2-(5-chloro-2-methylphenyl)-1H-pyrrole-3-carboxamide] | 6 | 18 | 290
4 | Cc1ccc(Cl)cc1-c1[nH]c(-c2nc(N)ncc2C#Cc2ccc(OC3CCN(C)CC3)cc2)cc1C(N)=O [compound 48, 5-[2-Amino-5-({4-[(1-methylpiperidin-4-yl)oxy]phenyl}ethynyl)pyrimidin-4-yl]-2-(5-chloro-2-methylphenyl)-1H-pyrrole-3-carboxamide] | 6 | 8 | 160
5 | Cc1ccc(Cl)cc1-c1[nH]c(-c2nc(N)ncc2C#Cc2cc(N3CCN(C)CC3)ccc2F)cc1C(N)=O [compound 49, 5-(2-Amino-5-{[2-fluoro-5-(4-methylpiperazin-1-yl)phenyl]ethynyl}pyrimidin-4-yl)-2-(5-chloro-2-methylphenyl)-1H-pyrrole-3-carboxamide] | 5 | 20 | 140
6 | Cc1ccc(Cl)cc1-c1[nH]c(-c2nc(N)ncc2C#CCN2CCN(C)CC2)cc1C(N)=O [compound 50, 5-{2-Amino-5-[3-(4-methylpiperazin-1-yl)prop-1-yn-1-yl]pyrimidin-4-yl}-2-(5-chloro-2-methylphenyl)-1H-pyrrole-3-carboxamide] | 7 | 26 | 1380
7 | Cc1ccc(Cl)cc1-c1[nH]c(-c2nc(N)ncc2C#Cc2ccc(CN3CCCCC3)cc2)cc1C(N)=O [compound 67, 5-(2-Amino-5-{[4-(piperidin-1-ylmethyl)phenyl]ethynyl}pyrimidin-4-yl)-2-(5-chloro-2-methylphenyl)-1H-pyrrole-3-carboxamide] | 1 | 1 | 190
8 | Cc1ccc(Cl)cc1-c1[nH]c(-c2ccnc(N)n2)c(C#Cc2ccccc2)c1C(N)=O [compound 69, 5-(2-Amino-pyrimidin-4-yl)-2-(5-chloro-2-methyl-phenyl)-4-phenylethynyl-1H-pyrrole-3-carboxamide] | 8 | 20 | 1450
9 | Cc1ccc(Cl)cc1-c1[nH]c(-c2ccnc(N)n2)c(C#Cc2cccc(N)c2)c1C(N)=O [compound 72, 4-[(3-Aminophenyl)ethynyl]-5-(2-aminopyrimidin-4-yl)-2-(5-chloro-2-methylphenyl)-1H-pyrrole-3-carboxamide] | 2 | 10 | 420

Continued, values first:

Row | IC50 [1] [nM] | IC50 [2] [nM] | IC50 [3] [nM] | SMILES
10 | 4 | 6 | 160 | Cc1ccc(Cl)cc1-c1[nH]c(-c2nc(N)ncc2C#Cc2cccc(OC3CCN(C)CC3)c2)cc1C(N)=O [compound 32, 5-[2-Amino-5-({3-[(1-methylpiperidin-4-yl)oxy]phenyl}ethynyl)pyrimidin-4-yl]-2-(5-chloro-2-methylphenyl)-1H-pyrrole-3-carboxamide]
11 | 3 | 6 | 220 | Cc1ccc(Cl)cc1-c1[nH]c(-c2nc(N)ncc2C#Cc2cccc(N3CCN(C)CC3)c2)cc1C(N)=O [compound 47, 5-(2-Amino-5-{[3-(4-methylpiperazin-1-yl)phenyl]ethynyl}pyrimidin-4-yl)-2-(5-chloro-2-methylphenyl)-1H-pyrrole-3-carboxamide]
12 | 3 | 5 | 100 | Cc1ccc(Cl)cc1-c1[nH]c(-c2nc(N)ncc2C#Cc2cccc(NCCN)c2)cc1C(N)=O [compound 63, 5-[2-Amino-5-({3-[(2-aminoethyl)amino]phenyl}ethynyl)pyrimidin-4-yl]-2-(5-chloro-2-methylphenyl)-1H-pyrrole-3-carboxamide]
13 | 1 | 1 | 190 | Cc1ccc(Cl)cc1-c1[nH]c(-c2nc(N)ncc2C#Cc2ccc(CN3CCCC3)cc2)cc1C(N)=O [compound 66, 5-(2-Amino-5-{[4-(pyrrolidin-1-ylmethyl)phenyl]ethynyl}pyrimidin-4-yl)-2-(5-chloro-2-methylphenyl)-1H-pyrrole-3-carboxamide]
